Structures can show the parent of a compound that is named as a salt. Where two headings read alike, the source gives them in different places.
How the values were obtained:
human ERα = molecular target: T1, human ERα (Homo sapiens, UniProt P03372); assay: Competition with [3H]-17β-estradiol for binding to ERα; settings: ligand binding domain of human ERα in E. coli crude lysate, 2 nM [3H]-17β-estradiol, 5-15 hours at room temperature
T1 construct: made in house; host or cells: E. coli (crude lysate)
T1 sequence (P03372 311-547 limits assumed): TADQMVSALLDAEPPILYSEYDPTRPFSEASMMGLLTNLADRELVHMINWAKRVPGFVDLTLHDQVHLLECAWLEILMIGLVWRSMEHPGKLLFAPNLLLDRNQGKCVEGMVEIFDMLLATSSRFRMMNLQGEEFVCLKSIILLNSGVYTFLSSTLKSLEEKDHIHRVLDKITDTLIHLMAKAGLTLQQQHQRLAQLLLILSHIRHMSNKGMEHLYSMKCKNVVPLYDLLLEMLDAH
Experimental: Representative examples of the invention were evaluated for their ability to compete with 17β-estradiol for both ERα and ERβ. This test procedure provides the methodology for one to determine whether a particular compound binds to the estrogen receptor (and is therefore “estrogenic”) and whether there is selectivity for ERα or ERβ. The values are shown in the Table infra and are reported as IC50s. 17β-estradiol is included as a standard reference for comparison. The procedure used is briefly described below. A crude lysate of E. coli expressing the estrogen receptor ligand binding domains (D, E, & F) of human ERα or ERβ was prepared. Both receptors and compounds were diluted in 1× Dulbecco's PBS (DPBS) supplemented with 1 mM EDTA. Using a high binding masked microtiter plate, 100 uL of receptor (1 uG/well) was combined with 2 nm [^3H]-17β-estradiol and various concentrations of compound. After between 5 and 15 hours at room temperature, the plates were washed with DPBS/1 mM EDTA and bound radioactivity determined by liquid scintillation counting. The IC50 is defined as the concentration of compound that decreases total 17β-estradiol binding by 50%.

human ERβ = molecular target: T2, human ERβ (Homo sapiens, UniProt Q92731); assay: Competition with [3H]-17β-estradiol for binding to ERβ; settings: ligand binding domain of human ERβ in E. coli crude lysate, 2 nM [3H]-17β-estradiol, 5-15 hours at room temperature
T2 construct: made in house; host or cells: E. coli (crude lysate)
Experimental: Representative examples of the invention were evaluated for their ability to compete with 17β-estradiol for both ERα and ERβ. This test procedure provides the methodology for one to determine whether a particular compound binds to the estrogen receptor (and is therefore “estrogenic”) and whether there is selectivity for ERα or ERβ. […] 17β-estradiol is included as a standard reference for comparison. The procedure used is briefly described below. A crude lysate of E. coli expressing the estrogen receptor ligand binding domains (D, E, & F) of human ERα or ERβ was prepared. Both receptors and compounds were diluted in 1× Dulbecco's PBS (DPBS) supplemented with 1 mM EDTA. Using a high binding masked microtiter plate, 100 uL of receptor (1 uG/well) was combined with 2 nm [^3H]-17β-estradiol and various concentrations of compound. After between 5 and 15 hours at room temperature, the plates were washed with DPBS/1 mM EDTA and bound radioactivity determined by liquid scintillation counting. The IC50 is defined as the concentration of compound that decreases total 17β-estradiol binding by 50%.

T2 sequence (Q92731 264-498 limits assumed): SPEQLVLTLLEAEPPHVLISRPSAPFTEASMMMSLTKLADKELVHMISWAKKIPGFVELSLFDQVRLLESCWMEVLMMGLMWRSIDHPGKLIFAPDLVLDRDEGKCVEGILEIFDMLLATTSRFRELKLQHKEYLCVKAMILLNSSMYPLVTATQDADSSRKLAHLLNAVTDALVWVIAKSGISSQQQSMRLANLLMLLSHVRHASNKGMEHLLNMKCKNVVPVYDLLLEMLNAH

Structure (SMILES) | IC50 (human ERα; read-out: ERα (nM) IC50) | melting point | IC50 (human ERβ) | IC50 (human ERα; read-out: ERα IC50 (cell prints uM))
Cc1ccccc1-c1c2c(cc3ccc(O)cc13)-c1ccc(O)cc1CO2 [Example 24, 7-(2-Tolyl)-5H-dibenzo[c,g]chromene-3,9-diol] | 487 nM | 193 to 196 °C | 11 nM | 
Oc1ccc2c(c1)COc1c-2cc2ccc(O)cc2c1-c1ccoc1 [Example 47, 7-(3-Furyl)-5H-dibenzo[c,g]chromene-3,9-diol] | 76 nM | 216 to 218 °C | 2 nM | 
Oc1ccc2c(c1)COc1c-2cc2ccc(O)cc2c1Br [Example 13, 7-Bromo-5H-dibenzo[c,g]chromene-3,9-diol] | 13 nM |  | 1.2 nM | 
Oc1ccc2c(c1)COc1c-2cc2ccc(O)cc2c1-c1ccc(F)cc1 [Example 29, 7-(4-Fluorophenyl)-5H-dibenzo[c,g]chromene-3,9-diol] | 298 nM | 229 to 232 °C | 6.4 nM | 
C=Cc1c2c(cc3ccc(O)cc13)-c1ccc(O)cc1CO2 [Example 16, 7-Vinyl-5H-dibenzo[c,g]chromene-3,9-diol] | 44 nM |  | 2 nM | 
N#Cc1c2c(cc3ccc(O)cc13)-c1ccc(O)cc1CO2 [Example 14, 3,9-Dihydroxy-5H-dibenzo[c,g]chromene-7-carbonitrile] | 32 nM | > 280 °C | 2.7 nM | 
Oc1ccc2c(c1)COc1c-2cc2ccc(O)cc2c1-c1cc(F)cc(F)c1 [Example 44, 7-(3,5-Difluorophenyl)-5H-dibenzo[c,g]chromene-3,9-diol] | 70 nM | 238 to 240 °C | 10 nM | 
Oc1ccc2c(c1)COc1c-2cc2ccc(O)cc2c1-c1ccccc1Cl [Example 35, 7-(2-Chlorophenyl)-5H-dibenzo[c,g]chromene-3,9-diol] | 26 nM | 220 to 222 °C | 9.7 nM | 
Oc1ccc2c(c1)COc1c-2cc2ccc(O)cc2c1-c1cccc(OC(F)(F)F)c1 [Example 58, 7-(3-Trifluoromethoxyphenyl)-5H-dibenzo[c,g]chromene-3,9-diol] | 661 nM | 110 to 112 °C | 40 nM | 
Oc1ccc2c(c1)COc1c-2cc2ccc(O)cc2c1-c1ccc(OC(F)(F)F)cc1 [Example 59, 7-(4-Trifluoromethoxyphenyl)-5H-dibenzo[c,g]chromene-3,9-diol] | 1220 nM | 245 to 248 °C | 34 nM | 
N#Cc1ccc(-c2c3c(cc4ccc(O)cc24)-c2ccc(O)cc2CO3)cc1 [Example 40, 7-(4-Cyanophenyl)-5H-dibenzo[c,g]chromene-3,9-diol] | 162 nM | > 250 °C | 9.2 nM | 
OCc1ccccc1-c1c2c(cc3ccc(O)cc13)-c1ccc(O)cc1CO2 [Example 22, 7-[2-(Hydroxymethyl)phenyl]-5H-dibenzo[c,g]chromene-3,9-diol] | 531 nM | 171 to 173 °C | 349 nM | 
COc1cncc(-c2c3c(cc4ccc(O)cc24)-c2ccc(O)cc2CO3)c1 [Example 53, 7-(5-Methoxy-3-Pyridyl)-5H-dibenzo[c,g]chromene-3,9-diol] | 2420 nM | > 250 °C | 34 nM | 
Cc1cc(C)cc(-c2c3c(cc4ccc(O)cc24)-c2ccc(O)cc2CO3)c1 [Example 63, 7-(3,5-Dimethylphenyl)-5H-dibenzo[c,g]chromene-3,9-diol] |  | 220 to 223 °C |  | 
Cc1cccc(-c2c3c(cc4ccc(O)cc24)-c2ccc(O)cc2CO3)c1 [Example 25, 7-(3-Tolyl)-5H-dibenzo[c,g]chromene-3,9-diol] | 117 nM | 219 to 222 °C | 4.2 nM | 
Cc1cc(-c2c3c(cc4ccc(O)cc24)-c2ccc(O)cc2CO3)ccc1F [Example 46, 7-(3-Methyl-4-Fluorophenyl)-5H-dibenzo[c,g]chromene-3,9-diol] | 709 nM | 185 to 188 °C | 39 nM | 

Structure (SMILES) | IC50 (human ERα; read-out: ERα (nM) IC50) | melting point | IC50 (human ERβ) | IC50 (human ERα; read-out: ERα IC50 (cell prints uM))
Oc1ccc2c(c1)COc1c-2cc2ccc(O)cc2c1-c1cccnc1 [Example 50, 7-(3-Pyridinyl)-5H-dibenzo[c,g]chromene-3,9-diol] | 1360 nM | > 250 °C | 14 nM | 
Oc1ccc2c(c1)COc1c-2cc2ccc(O)cc2c1-c1cccc(C(F)(F)F)c1 [Example 43, 7-(3-Trifluoromethylphenyl)-5H-dibenzo[c,g]chromene-3,9-diol] | 263 nM | 228 to 231 °C | 10 nM | 
COc1c2c(c(Br)c3ccc(O)cc13)-c1ccc(O)cc1CO2 [Example 19, 12-Bromo-7-methoxy-5H-dibenzo[c,g]chromene-3,9-diol] | 12 nM |  | 3.3 nM | 
Cc1ccc(-c2c3c(cc4ccc(O)cc24)-c2ccc(O)cc2CO3)cc1C [Example 39, 7-(3,4-Dimethylphenyl)-5H-dibenzo[c,g]chromene-3,9-diol] | 608 nM | 218 to 221 °C | 22 nM | 
Oc1ccc2c(c1)COc1c-2cc2ccc(O)cc2c1-c1ccccn1 [Example 54, 7-(2-Pyridyl)-5H-dibenzo[c,g]chromene-3,9-diol] | > 5000 nM | > 220 °C | 108 nM | 
COc1c2c(c(Cl)c3ccc(O)cc13)-c1ccc(O)cc1CO2 [Example 20, 12-Chloro-7-methoxy-5H-dibenzo[c,g]chromene-3,9-diol] | 13 nM |  | 1.4 nM | 
COc1ccncc1-c1c2c(cc3ccc(O)cc13)-c1ccc(O)cc1CO2 [Example 51, 7-(4-Methoxy-3-Pyridyl)-5H-dibenzo[c,g]chromene-3,9-diol] |  | > 220 °C |  | 
Oc1ccc2c(c1)COc1ccc3ccc(O)cc3c1-2 [Example 5, 5H-Dibenzo[c,f]chromene-3,11-diol] |  | 199 to 201 °C |  | 
Oc1ccc2c(c1)COc1c-2cc2ccc(O)cc2c1Cl [Example 12, 7-Chloro-5H-dibenzo[c,g]chromene-3,9-diol] | 15 nM |  | 1.5 nM | 
Oc1ccc2c(c1)COc1c-2cc2ccc(O)cc2c1-c1ccc(Cl)c(Cl)c1 [Example 55, 7-(3,4-Dichlorophenyl)-5H-dibenzo[c,g]chromene-3,9-diol] |  | 143 to 145 °C | 835 nM | 
Oc1ccc2c(c1)COc1c-2cc2ccc(O)cc2c1-c1cccc2ccccc12 [Example 61, 7-(Naphthyl)-5H-dibenzo[c,g]chromene-3,9-diol] | 172 nM |  |  | 
Oc1ccc2c(c1)COc1c-2cc2ccc(O)cc2c1-c1ncccn1 [Example 52, 7-(Pyrimidyl)-5H-dibenzo[c,g]chromene-3,9-diol] | 1600 nM |  | 60 nM | 
COc1ccc(-c2c3c(cc4ccc(O)cc24)-c2ccc(O)cc2CO3)cn1 [Example 51] | 764 nM |  | 22 nM | 
Oc1ccc2c(c1)COc1c-2cc2ccc(O)cc2c1-c1ccncc1 (as salt: HCl) [Example 37, 7-(4-Pyridyl)-5H-dibenzo[c,g]chromene-3,9-diol] |  | > 250 °C |  | 
Oc1ccc2c(c1)COc1c-2cc2ccc(O)cc2c1-c1ccncc1 [Example 37, 7-(4-Pyridyl)-5H-dibenzo[c,g]chromene-3,9-diol] |  |  | 3.05 nM | > 5000 nM
COc1c2c(cc3ccc(O)cc13)-c1ccc(O)cc1CO2 [Example 15, 7-Methoxy-5H-dibenzo[c,g]chromene-3,9-diol] | 169 nM |  | 4.3 nM | 

— patent US7671084B2 (Wyeth, priority 2004, dated 2010)
